In the assay the test system is grape (species: "Italia"). The assay can be described thus: Fruit enlargement test, grape, dipping treatment of bunches. The note with it: for Mean bunch weight: 7 bunches; for One berry weight: bunch weight/total berry number. It is filed as in vivo. How it is done:
Using grape (species: “Italia”) as a subject, a fruit enlargement test was done following the experimental summary described below. The test was carried out with 7 replication. Fifteen days after the full bloom, grape bunches were dipped in a chemical solution diluted to a predetermined concentration. The treated grape bunches were dried in air and grown as they were, until the bunches were harvested 43 days after the treatment to examine the bunch weight and the total number of grape berries. Five berries were randomly selected from each grape bunch of 5 replication among the test lots, for measuring the sugar level with a hand-held refracto-sugar meter manufactured by ATAGO CO., LTD (Type number: Nl). Additionally, a drug substance of gibberellin in powder (98% purity) was used as the gibberellin, while as the prohexadione calcium salt, a 27.5% formulation (the trade name: Viviful) was used, and as the trinexapac ethyl, a 25% formulation thereof (the trade name: Moddus) was used.
Material: Grape bunch “Italia” Fully bloomed on Sep. 21, 2006; starting the treatments on Oct. 6, 2006; harvested on Dec. 18, 2006: 7 bunches per one treatment lot.
C: Cont (control lot) G: dipping treatment in gibberellin (24.5 ppm) PCA: dipping treatment in prohexadione calcium salt (20 ppm, 100 ppm) GPCA: dipping treatment in gibberellin and prohexadione calcium salt (24.5 and 20 ppm, respectively or 24.5 ppm and 100 ppm, respectively) TR: dipping treatment in trinexapac ethyl (20 ppm, 100 ppm) G+TR: dipping treatment in gibberellin and trinexapac ethyl (24.5 ppm and 20 ppm, respectively or 24.5 ppm and 100 ppm, respectively).
Herein, statistical analysis was done by the Tukey's HSD test (p=0.05). Significant difference is observed between different alphabets.

The text below walks through data of patent US20080280765A1, “Method of Promoting Enlargement Growth of Agricultural and Horticultural Crops” (priority 2006, published 2008).

Each structure is given as a SMILES string. Counter-ions that a name gives are not always drawn.

For the setting “20 ppm”, `CCC(=O)C1=C(O)CC(C(=O)O)CC1=O` (centres unmarked) [PCA, prohexadione calcium salt] came in with a Mean bunch weight of 452.9 g and an One berry weight of 7.3 g. Under “100 ppm”, this compound yielded a Mean bunch weight of 390.0 g and an One berry weight of 6.4 g.

On to `CCOC(=O)C1CC(=O)C(=C(O)C2CC2)C(=O)C1` (centres unmarked) [TR, trinexapac ethyl], for which, for the setting “20 ppm”, the Mean bunch weight is reported as 487.1 g and the One berry weight came out at 7.9 g. For the same compound, for the setting “100 ppm”, the Mean bunch weight is reported as 474.3 g and the One berry weight is listed as 6.7 g.
